The source of these data is patent publication US12409180B2, “Formulation production process” (Verona Pharma PLC, priority 2022, dated 2025).

Type in all cases: physicochemical
Series [1] is described as follows: Assay testing by HPLC of products after sterilisation. Conditions: dry heat treatment at temperatures of from 150° C. to 170° C. As to the method: (§1) Assay testing was performed in duplicate with the key high performance liquid chromatography (HPLC) parameters shown in Table 1.
(§2) The assays and related substances of the products obtained by each of sterilisation techniques A to F were assessed by the HPLC methods described above.

The nature of series [2]: Impurities determination (related substances) by HPLC of products after sterilisation. To be noted: dry heat treatment at temperatures of from 150° C. to 170° C. As to the method: (§3) Impurities determination was performed in duplicate with the key high performance liquid chromatography (HPLC) parameters shown in Table 2.
as §2

Series [3] in a line: Overall assessment of products (assay and related substances) after sterilisation. As to the method:
as §1, §3, §2

As for `COc1cc2c(cc1OC)-c1c/c(=N\c3c(C)cc(C)cc3C)n(CCNC(N)=O)c(=O)n1CC2` [micronised ensifentrine, N-(2-{(2E)-9,10-dimethoxy-4-oxo-2-[(2,4,6-trimethylphenyl)imino]-6,7-dihydro-2H-pyrimido [6,1-a]isoquinolin-3(4H)-yl}ethyl) urea], the changes in assay entry in series [1] is “no significant changes”. Moreover, the changes in purity entry in series [2] is listed as “no significant changes”. Further, the “changes observed (assay and related substances)” value in series [3] (technique C: dry heat treatment of dry powder, 150° C. for 150 minutes) is “No significant changes observed”; in series [3] (technique D: dry heat treatment of dry powder, 160° C. for 120 minutes), “No significant changes observed”; in series [3] (technique E: dry heat treatment of dry powder, 170° C. for 60 minutes), “No significant changes observed”.
